Measurements as given in US12522615B2, “Macrocyclic compounds and derivatives as EGFR inhibitors” (Boehringer Ingelheim International GmbH, priority 2019, dated 2026).
Like-named read-outs stand apart in the source and are kept apart here. One block for each compound: values may come before it.

What was measured:
[1] = system: Ba/F3 cells EGFR-indep. + IL-3; experiment: Ba/F3 proliferation assay (CellTiter-Glo viability); type: cell-based, murine; conditions: Mus musculus, BaF3, 72 h
Method: (§1) Plasmids containing EGFR mutants were obtained from GeneScript. To generate EGFR-dependent Ba/F3 models, Ba/F3 cells were transduced with retroviruses containing vectors that harbor EGFR isoforms. Platinum-E cells (Cell Biolabs) were used for retrovirus packaging. Retrovirus was added to Ba/F3 cells. To ensure infection, 4 μg/mL polybrene was added and cells were spinfected. Infection efficiency was confirmed by measuring GFP-positive cells using a cell analyzer. Cells with an infection efficiency of 10% to 20% were further cultivated and puromycin selection with 1 μg/mL was initiated. As a control, parental Ba/F3 cells were used to show selection status. Selection was considered successful when parental Ba/F3 cells cultures died. To evaluate the transforming potential of EGFR mutations, the growth medium was no longer supplemented with IL-3. Ba/F3 cells harboring the empty vector were used as a control. A switch from IL-3 to EGF was performed for Ba/F3 cells with the wildtype EGFR known for its dependency on EGF ligand. Approximately ten days before conducting the experiments, puromycin was left out. For proliferation assays (data in table 13), Ba/F3 cells were seeded into 96-well plates at 5×10^3 cells/100 μL in growth media. Compounds were added by using a HP D3000 Digital Dispenser. All treatments were performed in technical triplicates. Treated cells were incubated for 72 h at 37° C. with 5% CO2. CellTiter-Glo® Luminescent Cell Viability Assay (Promega) was performed and chemoluminescence was measured by using the multilabel Plate Reader VICTOR X4. The raw data were imported into and analyzed with the Boehringer Ingelheim proprietary software MegaLab (curve fitting based on the program PRISM, GraphPad Inc.).

[2] = system: Ba/F3 cells driven by EGFR L858R; experiment: as above; type: cell-based, murine; conditions: Mus musculus, BaF3, 72 h
Method: as §1

[3] = system: Ba/F3 cells driven by EGFR del19; experiment: as above; type: cell-based, murine; conditions: Mus musculus, read-out: IC50 EGFR del19
Method: as §1

[4] = system: Ba/F3 cells driven by EGFR L858R C797S; experiment: as above; type: cell-based, murine; conditions: Mus musculus, BaF3, 72 h
Method: as §1

[5] = system: Ba/F3 cells driven by EGFR del19 C797S; experiment: as above; type: cell-based, murine; conditions: Mus musculus, BaF3, 72 h
Method: as §1

[6] = system: Ba/F3 cells driven by EGFR wt; experiment: as above; type: cell-based, murine; conditions: Mus musculus, BaF3, 72 h
Method: as §1

[7] = system: Ba/F3 cells driven by EGFR L858R T790M C797S; experiment: as above; type: cell-based, murine; conditions: Mus musculus, BaF3, 72 h
Method: as §1

[8] = system: Ba/F3 cells driven by EGFR del19 T790M C797S; experiment: as above; type: cell-based, murine; conditions: Mus musculus, BaF3, 72 h
Method: as §1

[9] = system: Ba/F3 cells driven by EGFR L858R T790M; experiment: as above; type: cell-based, murine; conditions: Mus musculus, BaF3, 72 h
Method: as §1

[10] = system: Ba/F3 cells driven by EGFR del19 T790M; experiment: as above; type: cell-based, murine; conditions: Mus musculus, BaF3, 72 h
Method: as §1

[11] = system: EGFR M+ NSCLC patients; conditions: EGFR M+ NSCLC patients treated in 1st line; cited from earlier work
[12] = molecular target: EGFR del19 T790M C797S (Homo sapiens, UniProt P00533, C797S/T790M, form not given); experiment: pEGFR assay: phosphorylation of EGFR at Tyr1068 in Ba/F3 cells (AlphaScreen Surefire); type: cell-based; conditions: 4 h
Chain of EGFR del19 T790M C797S (P00533 25-1210 T790M/C797S limits assumed, form open): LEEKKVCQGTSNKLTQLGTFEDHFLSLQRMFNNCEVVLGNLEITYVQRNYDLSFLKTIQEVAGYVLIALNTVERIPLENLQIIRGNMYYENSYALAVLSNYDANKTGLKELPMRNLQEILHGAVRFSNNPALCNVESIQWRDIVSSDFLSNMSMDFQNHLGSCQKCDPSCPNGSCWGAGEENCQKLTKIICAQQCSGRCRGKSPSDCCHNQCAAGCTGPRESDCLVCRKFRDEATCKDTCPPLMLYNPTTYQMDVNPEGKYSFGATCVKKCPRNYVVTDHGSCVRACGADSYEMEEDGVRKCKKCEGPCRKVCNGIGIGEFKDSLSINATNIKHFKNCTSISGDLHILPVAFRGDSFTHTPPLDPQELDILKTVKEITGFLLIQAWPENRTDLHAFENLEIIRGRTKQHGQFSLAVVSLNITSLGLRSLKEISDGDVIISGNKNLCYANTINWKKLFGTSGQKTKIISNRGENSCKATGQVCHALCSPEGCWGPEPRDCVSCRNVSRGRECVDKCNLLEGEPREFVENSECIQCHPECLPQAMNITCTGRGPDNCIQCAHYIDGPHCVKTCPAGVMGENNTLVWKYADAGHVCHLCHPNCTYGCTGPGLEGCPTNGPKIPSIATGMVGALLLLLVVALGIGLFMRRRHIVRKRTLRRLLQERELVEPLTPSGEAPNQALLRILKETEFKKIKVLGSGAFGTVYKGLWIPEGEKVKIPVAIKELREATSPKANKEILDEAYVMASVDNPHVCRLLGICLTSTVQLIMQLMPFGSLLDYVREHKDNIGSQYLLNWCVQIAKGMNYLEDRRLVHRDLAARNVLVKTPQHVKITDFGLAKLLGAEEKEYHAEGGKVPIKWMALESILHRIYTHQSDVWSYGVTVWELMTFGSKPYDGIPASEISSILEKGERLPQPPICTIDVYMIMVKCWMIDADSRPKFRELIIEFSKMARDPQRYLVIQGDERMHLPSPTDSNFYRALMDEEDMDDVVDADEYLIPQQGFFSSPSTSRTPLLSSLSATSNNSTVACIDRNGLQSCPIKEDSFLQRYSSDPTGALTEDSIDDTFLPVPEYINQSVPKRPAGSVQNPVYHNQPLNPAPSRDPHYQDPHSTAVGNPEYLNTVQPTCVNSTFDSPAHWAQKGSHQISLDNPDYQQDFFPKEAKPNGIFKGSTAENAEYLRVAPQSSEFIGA
Method: Transduced cells were selected using puromycin. Following selection, IL-3 was withdrawn and IL-3 independent cells cultured. p-EGFR Tyr1068 was determined using the AlphaScreen Surefire pEGF Receptor (Tyr1068) Assay (PerkinElmer, TGRERS). […] Subsequently, 60.000 cells/well in 60 μL were added. Cells were incubated with compound for 4 h at 37° C. […] The mixture was incubated at room temperature with shaking (700 rpm) for 20 min. After centrifugation, 4 μL of the lysate were transferred to Proxiplates. […] Plates were shaken for 1 min (1400 rpm) and incubated for 2 h at room temperature in the dark.

[13] = molecular target: EGFR (d746-750 T790M C797S) (Homo sapiens (Human), UniProt P00533, C797S/DEL746-750/T790M); experiment: Biochemical EGFR inhibition assay (poly-GT substrate phosphorylation, TR-FRET LANCE Ultra); conditions: 5 μM ATP; read-out: Del_TM_CS (5 μM ATP)
Chain of EGFR (d746-750 T790M C797S) (P00533 other isoform, or with tags, fused parts or gaps T790M/C797S/del 1-694/del 746-750 limits assumed): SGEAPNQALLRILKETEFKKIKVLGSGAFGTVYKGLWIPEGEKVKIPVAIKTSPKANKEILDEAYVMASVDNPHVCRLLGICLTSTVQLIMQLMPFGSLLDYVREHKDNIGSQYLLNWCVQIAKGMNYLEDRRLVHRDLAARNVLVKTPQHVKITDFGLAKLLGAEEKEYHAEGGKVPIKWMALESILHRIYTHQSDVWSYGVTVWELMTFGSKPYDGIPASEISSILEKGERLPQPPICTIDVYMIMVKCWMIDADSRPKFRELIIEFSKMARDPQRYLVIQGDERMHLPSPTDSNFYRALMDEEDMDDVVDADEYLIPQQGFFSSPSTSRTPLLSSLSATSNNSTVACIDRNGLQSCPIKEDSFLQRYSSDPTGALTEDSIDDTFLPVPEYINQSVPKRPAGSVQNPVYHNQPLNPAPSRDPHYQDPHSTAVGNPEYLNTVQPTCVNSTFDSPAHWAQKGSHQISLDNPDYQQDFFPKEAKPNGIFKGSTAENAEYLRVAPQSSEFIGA
Method: (§2) Initially, the inhibitory effect of compounds according to the invention is measured in biochemical assays which measure the phosphorylation activity of EGFR enzyme forms on poly-GT substrate in the presence of different concentrations of ATP (5 μM and 100 μM final assay concentration).
(§3) The following enzyme forms of EGFR are representative examples that can be used in these assays at the given concentrations:
Test compounds dissolved in DMSO are dispensed onto assay plates (Proxiplate 384 PLUS, white, PerkinElmer; 6008289) using an Access Labcyte Workstation with the Labcyte Echo 55x. […]
5 μL of EGFR enzyme form in assay buffer (50 mM HEPES pH 7.3, 10 mM MgCl2, 1 mM EGTA, 0.01% Tween 20, 2 mM DTT) are dispensed into columns 1-23, than 5 μL of ATP and ULight-poly-GT substrate (PerkinElmer; TRF0100-M) mix in assay buffer is added to all wells (final assay concentration of the ULight-poly-GT substrate 200 nM). […] After additional 60 minutes incubation at room temperature the signal is measured in a PerkinElmer Envision HTS Multilabel Reader using the TR-FRET LANCE Ultra specs of PerkinElmer (used wavelengths: excitation 320 nm, emission 1 665 nm, emission 2 615 nm). […] Negative and positive control values are used for normalization and IC50 values are calculated and analysed using a 4 parametric logistic model. […]

[14] = molecular target: EGFR (mutated) 695-1022, T790M, C797S, L858R (Homo sapiens (Human), UniProt P00533, C797S/L858R/T790M); experiment: as above
Chain of EGFR (mutated) 695-1022, T790M, C797S, L858R (P00533 695-1022 T790M/C797S/L858R): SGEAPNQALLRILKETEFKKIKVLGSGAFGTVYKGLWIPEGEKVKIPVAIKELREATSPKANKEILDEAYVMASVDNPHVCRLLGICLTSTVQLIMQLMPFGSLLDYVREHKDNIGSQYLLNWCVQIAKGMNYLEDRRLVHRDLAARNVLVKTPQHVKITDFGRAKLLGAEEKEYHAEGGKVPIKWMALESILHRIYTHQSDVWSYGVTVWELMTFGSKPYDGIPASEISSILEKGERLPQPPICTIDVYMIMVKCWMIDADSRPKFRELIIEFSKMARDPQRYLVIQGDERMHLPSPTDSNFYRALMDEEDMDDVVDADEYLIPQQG
Method: as §2, §3
(§4) For the chosen highest assay concentration of 100 μM, 150 nL of compound solution is transferred from a 10 mM DMSO compound stock solution. A series of eleven fivefold dilutions per compound is transferred to the assay plate, compound dilutions are tested in duplicates. DMSO is added as backfill to a total volume of 150 nL. The assay runs on a fully automated robotic system.
(§5) 5 μL of EGFR enzyme form in assay buffer (50 mM HEPES pH 7.3, 10 mM MgCl2, 1 mM EGTA, 0.01% Tween 20, 2 mM DTT) are dispensed into columns 1-23, than 5 μL of ATP and ULight-poly-GT substrate (PerkinElmer; TRF0100-M) mix in assay buffer is added to all wells (final assay concentration of the ULight-poly-GT substrate 200 nM). Each of the different EGFR enzyme form assays is available at low ATP (final assay concentration 5 μM) and high ATP levels (final assay concentration 100 μM). After 90 minutes incubation at room temperature 5 μL EDTA (final assay concentration 50 mM) and LANCE Eu-anti-P-Tyr (PT66) antibody (PerkinElmer, AD0069) (final assay concentration 6 nM) mix are added to stop the reaction and start the binding of the antibody. […] Each plate contains 16 wells of a negative control (diluted DMSO instead of test compound; w EGFR enzyme form; column 23) and 16 wells of a positive control (diluted DMSO instead of test compound; w/o EGFR enzyme form; column 24). Negative and positive control values are used for normalization and IC50 values are calculated and analysed using a 4 parametric logistic model.
(§6) These biochemical EGFR enzyme form compound dose-response assays quantify the kinase activity via phosphorylation of a tagged poly-GT substrate. The results of the assay are provided as IC50 values.

[15] = molecular target: EGFR wt (Homo sapiens (Human), UniProt P00533); experiment: as above
Chain of EGFR wt (P00533 25-1210): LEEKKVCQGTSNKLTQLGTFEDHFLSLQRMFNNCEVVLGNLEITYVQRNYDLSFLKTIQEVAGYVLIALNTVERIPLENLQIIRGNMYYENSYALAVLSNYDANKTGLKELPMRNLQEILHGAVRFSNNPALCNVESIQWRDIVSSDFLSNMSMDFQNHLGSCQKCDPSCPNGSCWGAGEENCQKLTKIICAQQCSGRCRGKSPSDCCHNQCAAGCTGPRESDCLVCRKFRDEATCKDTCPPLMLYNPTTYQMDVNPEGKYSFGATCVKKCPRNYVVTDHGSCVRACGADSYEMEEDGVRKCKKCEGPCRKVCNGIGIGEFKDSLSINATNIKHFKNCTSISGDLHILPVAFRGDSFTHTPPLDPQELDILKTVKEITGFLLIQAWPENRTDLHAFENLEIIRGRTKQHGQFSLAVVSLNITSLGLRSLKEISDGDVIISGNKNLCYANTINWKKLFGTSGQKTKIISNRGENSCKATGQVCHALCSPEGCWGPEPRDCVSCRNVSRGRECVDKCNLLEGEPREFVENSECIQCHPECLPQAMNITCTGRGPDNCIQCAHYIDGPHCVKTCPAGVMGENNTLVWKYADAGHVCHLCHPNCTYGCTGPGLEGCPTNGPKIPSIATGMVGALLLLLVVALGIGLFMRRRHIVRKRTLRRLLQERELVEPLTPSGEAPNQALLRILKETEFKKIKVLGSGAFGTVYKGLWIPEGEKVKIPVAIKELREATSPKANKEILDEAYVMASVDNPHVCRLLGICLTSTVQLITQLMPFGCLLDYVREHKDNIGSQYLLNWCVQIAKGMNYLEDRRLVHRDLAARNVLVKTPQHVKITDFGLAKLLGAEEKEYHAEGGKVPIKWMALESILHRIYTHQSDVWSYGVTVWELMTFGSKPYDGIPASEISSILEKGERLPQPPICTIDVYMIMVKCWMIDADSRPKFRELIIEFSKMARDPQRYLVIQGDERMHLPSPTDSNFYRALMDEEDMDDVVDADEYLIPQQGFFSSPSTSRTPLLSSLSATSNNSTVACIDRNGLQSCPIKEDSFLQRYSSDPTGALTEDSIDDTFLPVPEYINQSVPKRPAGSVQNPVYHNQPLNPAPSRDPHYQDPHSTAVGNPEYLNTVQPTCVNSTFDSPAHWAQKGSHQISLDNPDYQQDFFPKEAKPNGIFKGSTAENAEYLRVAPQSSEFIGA
Method: as §2, §3, §4, §5, §6

[16] = system: EGFR M+ T790M-positive patients; conditions: 2nd line, previously treated with earlier generation EGFR TKI; cited from earlier work
[17] = 5 μM ATP, read-out: LR_TM_CS (5 μM ATP)
[18] = 100 μM ATP, read-out: LR_TM_CS (100 μM ATP)
[19] = 5 μM ATP, read-out: wt (5 μM ATP)
[20] = 100 μM ATP, read-out: wt (100 μM ATP)

- IC50 [1]: > 5000 nM
- IC50 [2]: 5.1 nM
- IC50 ([3]; BaF3, viability, 72 h): 1.1 nM
SMILES: Cc1cc(C(=O)Nc2nc3cccc(Cl)c3n2[C@@H]2CCCCN(C(=O)/C=C/CN(C)C)C2)ccn1 [nazartinib]

- IC50 [4]: 6.9 nM
- IC50 [2]: 0.03 nM
- IC50 [5]: 1.6 nM
- IC50 ([3]; BaF3, viability, 72 h): 0.01 nM
- IC50 [6]: 0.64 nM
SMILES: COc1cc2ncnc(Nc3ccc(F)c(Cl)c3)c2cc1NC(=O)/C=C/CN1CCCCC1 [dacomitinib]

- IC50 [1]: 3500 nM
- IC50 [7]: 2200 nM
- IC50 [8]: 770 nM
- IC50 [6]: 2800 nM
SMILES: CC(=O)N1CCCCC(n2/c(=N/C(=O)c3ccnc(C)c3)[nH]c3cccc(Cl)c32)C1 (centres unmarked) [Exp. WO 2014/121942, reference compound]

SMILES: Cc1cc2cc(n1)-c1cnn(C)c1OCCC[C@@H](C)CN1/C(=N/C2=O)Nc2ccc(CN3CCN(C)CC3)cc21 [Compound I-021]
- IC50 [1]: 1100 nM
- IC50 [4]: 4 nM
- IC50 [7]: 0.4 nM
- IC50 [9]: 0.9 nM
- IC50 [2]: 7 nM
- IC50 [5]: 0.5 nM
- IC50 [8]: 0.2 nM
- IC50 [10]: 0.3 nM
- IC50 ([3]; BaF3, viability, 72 h): 1 nM
- IC50 [6]: 190 nM

SMILES: C#Cc1cccc(Nc2ncnc3cc(OCCOC)c(OCCOC)cc23)c1 [erlotinib]
- objective response rate [11]: 60-85%

- IC50 [12]: 4.1 nM
- IC50 [13]: 1.3 nM
- IC50 [14, 17]: 1.8 nM
- IC50 [14, 18]: 16 nM
- IC50 [15, 19]: 18 nM
- IC50 [15, 20]: > 100000 nM
SMILES: C[C@@H]1CCCOc2ccccc2-c2cc(ccn2)C(=O)N=C2Nc3ccccc3N2C1 [Compound I-046]

- IC50 [12]: 1.2 nM
- IC50 [13]: 0.2 nM
- IC50 [14, 17]: 0.3 nM
- IC50 [14, 18]: 3 nM
- IC50 [15, 19]: 13 nM
- IC50 [15, 20]: > 100000 nM
SMILES: Cn1ncc2c1OCCCCCN1/C(=N/C(=O)c3cc(F)nc-2c3)Nc2ccccc21 [Compound I-037]

SMILES: C=CC(=O)Nc1cc(Nc2nccc(-c3cn(C)c4ccccc34)n2)c(OC)cc1N(C)CCN(C)C [osimertinib]
- IC50 ([3]; BaF3, 72 h): 0.5 nM
- objective response rate [11]: 60-85%
- patients that respond to treatment [16]: Approximately 70%
